Results as given in US9072734B2, “Quaternary ammonium salt compounds” (Teijin Pharma Limited, priority 2009, dated 2015).
Counter-ions that a name gives are not always drawn.

Tests used:
[1] = target: T1, human β2 adrenergic receptor (Homo sapiens, UniProt P07550); assay: Whole-cell cAMP Flashplate assay using CHO-K1 cells stably expressing human β2 adrenergic receptor; assay type: cell-based; details: cAMP production
T1 construct: expressed in transfected cells; host or cells: CHO-K1
Method: The β2 adrenergic receptor, which couples to Gs proteins, activates adenylate cyclase upon agonist binding to the receptor. As a result, cAMP is produced in cells. The activation ability of the β2 adrenergic receptor can be measured by measuring the amount of the cAMP with cAMP-Screen System (Applied Biosystems).
CHO-K1 cells expressing the human β2 adrenergic receptor suspended in Ham's F-12 media containing 10% FBS were seeded into 96-well plates at a volume of 100 μL/well. Next day, they were washed with 200 μL PBS(−), to which 80 μL of 0.5 mM IBMX solution (Ham's F-12 media containing 0.05% BSA) was then added, followed by incubation for 20 minutes at 37° C. in the presence of 5% carbon dioxide. 20 μL of 9 concentrations of test compound solutions (0.5 mM IBMX solution containing 1% DMSO) prepared at concentrations in a range of 0.01-1000 nM with 2-fold serial dilution) were added, followed by incubation for 20 minutes at 37° C. in the presence of 5% carbon dioxide. Then, 100 μL of Assay/Lysis Buffer (a reagent that comes with cAMP Screen System) was added. The cells were lysed by pipetting, further incubated for 30 minutes at 37° C., and then frozen at −80° C. After several days, samples, thawed at room temperature, were treated according to the protocol of cAMP Screen System, and then chemiluminescence was measured by EnVision (PerkinElmer, Inc.). The amount of cAMP was calculated from the standard curve for the standard attached to cAMP Screen System.
The concentrations of a test compound at which 50% of its maximal effect is reached (EC50 values) were analyzed by a four-parameter logistic model using XLfit4 (IDBS, Ltd.) for the amounts of cAMP production at different concentrations of the test compounds.

[2] = target: T2, human M3 muscarinic receptor (Homo sapiens, UniProt P20309); assay: Inhibitory effect on methacholine-induced calcium influx, FLIPR assay, CHO-K1 cells stably expressing the human M3 muscarinic receptor; assay type: cell-based; details: inhibition of calcium influx induced by methacholine
T2 construct: expressed in transfected cells; host or cells: CHO-K1
Excerpt: Muscarinic receptor subtypes (M1, M3 and M5 receptors), which couple to Gq proteins, activate the phospholipase C (PLC) pathway upon agonist binding to the receptor. As a result, the activated PLC hydrolyzes phosphatidyl inositol diphosphate (PIP2) to diacyl glycerol (DAG) and […] (IP3), which in turn generates calcium release from intracellular stores, i.e., endoplasmic and sarcoplasmic reticula. By utilizing FLIPR (Molecular Devices, Inc.) assay in which a calcium sensitive dye (Component A) is used that fluoresces when free calcium binds, the increase in intracellular calcium is measured on the basis of the change in the fluorescence intensity.
Methacholine was added to CHO-K1 cells stably expressing the human M3 muscarinic receptor to induce calcium influx and evaluate the inhibitory effect of test compounds. In the experiment, a FLIPR Calcium assay kit (Molecular Devices, Inc.) was used.
CHO-K1 cells stably expressing the human M3 muscarinic receptor suspended in Ham's F-12 media (Invitrogen, Co.) containing 10% fetal bovine serum (FBS) were seeded into 96-well FLIPR plates at a volume of 100 μL/well. Next day, 60 μL/well of Non-wash-dye solution (Hank's buffered salt solution, HBSS, containing 20 mM HEPES and 6.5 mM probenecid) was added to the cells, which were then incubated for an hour at 37° C. in the presence of 5% carbon dioxide. 20 μL of 10 concentrations of test compound solutions (HBSS containing 1% DMSO, 20 mM HEPES, 2.5 mM probenecid and 0.05% bovine serum albumin, BSA) prepared at concentrations in a range of 0.01-1000 nM with 2-fold serial dilution) were added, followed by incubation for 180 seconds. Then, 20 μL of 30 nM methacholine solution (HBSS containing 20 mM HEPES, 2.5 mM probenecid and 0.05% bovine serum albumin, BSA) was added, and fluorescence intensity was traced by the intracellular calcium influx measuring device FLIPR 96 (Molecular Devices, Inc.) for 170 seconds. The difference between the lowest and the highest values of the fluorescence intensity (FI) over the period of the measurement was used as a measured value. The percentages of inhibition by the test compounds were calculated according to the following formula from the measured value of the methacholin-added and test compound non-added sample (FIpositive), the measured value of the methacholin non-added and test compound non-added sample (FInegative), and the measured value of the methacholin-added and test compound-added sample (FItest). (%) Percentage of inhibition by test compound=[(1−(FItest−FInegative)/(FIpositive−FInegative)]×100
The 50% inhibitory concentrations (IC50 values) of test compounds were analyzed by a four-parameter logistic model using XLfit4 (IDBS, Ltd.) for the percentage of the inhibition by different concentrations of test compounds.

T1 sequence (P07550 whole entry): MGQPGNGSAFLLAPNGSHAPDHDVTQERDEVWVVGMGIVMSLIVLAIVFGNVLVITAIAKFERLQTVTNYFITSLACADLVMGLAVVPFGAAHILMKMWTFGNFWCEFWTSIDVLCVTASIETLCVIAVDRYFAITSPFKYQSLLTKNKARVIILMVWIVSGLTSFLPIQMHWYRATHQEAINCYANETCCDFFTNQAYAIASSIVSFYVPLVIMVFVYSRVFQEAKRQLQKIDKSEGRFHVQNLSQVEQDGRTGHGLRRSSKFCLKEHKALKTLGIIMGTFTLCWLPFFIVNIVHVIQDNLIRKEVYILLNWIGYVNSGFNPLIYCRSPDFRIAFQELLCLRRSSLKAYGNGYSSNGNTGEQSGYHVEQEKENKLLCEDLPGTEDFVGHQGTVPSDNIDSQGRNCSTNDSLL
T2 sequence (P20309 whole entry): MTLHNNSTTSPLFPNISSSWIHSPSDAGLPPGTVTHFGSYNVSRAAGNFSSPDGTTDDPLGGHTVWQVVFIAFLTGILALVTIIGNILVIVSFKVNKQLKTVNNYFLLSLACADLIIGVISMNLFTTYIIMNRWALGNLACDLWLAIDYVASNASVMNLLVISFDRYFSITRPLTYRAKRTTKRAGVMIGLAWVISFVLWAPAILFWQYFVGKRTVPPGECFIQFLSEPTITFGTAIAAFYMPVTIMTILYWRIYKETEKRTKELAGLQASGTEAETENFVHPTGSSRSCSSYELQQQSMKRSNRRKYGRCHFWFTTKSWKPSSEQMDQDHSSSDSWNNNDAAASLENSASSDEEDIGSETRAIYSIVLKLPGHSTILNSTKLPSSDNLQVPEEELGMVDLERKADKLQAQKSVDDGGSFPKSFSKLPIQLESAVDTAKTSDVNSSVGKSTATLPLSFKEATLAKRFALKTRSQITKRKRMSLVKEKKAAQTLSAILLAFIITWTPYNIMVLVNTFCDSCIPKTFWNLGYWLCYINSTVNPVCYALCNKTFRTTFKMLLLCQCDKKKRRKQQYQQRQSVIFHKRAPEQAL

SMILES | EC50 [1] | IC50 [2]
COc1cc(NC(=O)CCCc2ccc(NC(=O)O[C@@H]3C[C@@H]4[C@H]5O[C@H]5[C@H](C3)[N+]4(C)C)c(-c3ccccc3)c2)c(Br)cc1CNC[C@H](O)c1ccc(O)c2[nH]c(=O)ccc12 [Example 70, (1R,2R,4S,5S,7S)-7-({[4-(3-{[2-bromo-4-({[(2R)-2-hydroxy-2-(8-hydroxy-2-oxo-1,2-dihydroquinolin-5-yl)ethyl]amino}methyl)-5-methoxyphenyl]carbamoyl}propyl)-2-phenylphenyl]carbamoyl}oxy)-9,9-dimethyl-3-oxa-9-azatricyclo[3.3.1.0^2,4]nonan-9-ium trifluoroacetate] | 0.2 nM | 60.3 nM
Cc1cc(NC(=O)CCc2ccc(-c3ccccc3)c(NC(=O)OC3CC[N+](C)(C)CC3)c2)ccc1CNC[C@H](O)c1ccc(O)c2[nH]c(=O)ccc12 [Example 8, 4-({[5-(2-{[4-({[(2R)-2-hydroxy-2-(8-hydroxy-2-oxo-1,2-dihydroquinolin-5-yl)ethyl]amino}methyl)-3-methylphenyl]carbamoyl}ethyl)-2-phenylphenyl]carbamoyl}oxy)-1,1-dimethylpiperidin-1-ium trifluoroacetate] | 5.1 nM | 13.5 nM
COc1cc(NC(=O)CCCc2ccc(-c3ccccc3)c(NC(=O)OC3C[C@H]4CC[C@H](C3)[N+]4(C)C)c2)c(Cl)cc1CNC[C@H](O)c1ccc(O)c2[nH]c(=O)ccc12 (stereo partly drawn) [Example 48, (1R,3R)-3-{[5-(3-{[2-chloro-4-({[(2R)-2-hydroxy-2-(8-hydroxy-2-oxo-1,2-dihydroquinolin-5-yl)ethyl]amino}methyl)-5-methoxyphenyl]carbamoyl}propyl)-2-phenylphenyl]carbamoyl}oxy)-8,8-dimethyl-8-azabicyclo[3.2.1]nonan-8-ium trifluoroacetate] | 0.4 nM | 21.7 nM
Cc1cc(CNC[C@H](O)c2ccc(O)c3[nH]c(=O)ccc23)ccc1NC(=O)CCc1ccc(-c2ccccc2)c(NC(=O)OC2C[C@@H]3[C@H]4O[C@H]4[C@H](C2)[N+]3(C)C)c1 (stereo partly drawn) [Example 43, (1R,2R,4S,5S,7S)-7-({[5-(2-{[4-({[(2R)-2-hydroxy-2-(8-hydroxy-2-oxo-1,2-dihydroquinolin-5-yl)ethyl]amino}methyl)-2-methylphenyl]carbamoyl}ethyl)-2-phenylphenyl]carbamoyl}oxy)-9,9-dimethyl-3-oxa-9-azatricyclo[3.3.1.0^2,4]nonan-9-ium trifluoroacetate] | 3 nM | 8.5 nM
C[N+]1(C)[C@@H]2CC(OC(=O)Nc3cc(CCC(=O)Nc4ccc(CCCNC[C@H](O)c5ccc(O)c6[nH]c(=O)ccc56)cc4)ccc3-c3ccccc3)C[C@H]1[C@@H]1O[C@@H]12 (stereo partly drawn) [Example 73, (1R,2R,4S,5S,7S)-7-({[5-(2-{[4-(3-{[(2R)-2-hydroxy-2-(8-hydroxy-2-oxo-1,2-dihydroquinolin-5-yl)ethyl]amino}propyl)phenyl]carbamoyl}ethyl)-2-phenylphenyl]carbamoyl}oxy)-9,9-dimethyl-3-oxa-9-azatricyclo[3.3.1.0^2,4]nonan-9-ium trifluoroacetate] | 10 nM | 27.5 nM
C[N+]1(C)CCC(OC(=O)Nc2cc(CCCC(=O)Nc3ccc(CNC[C@H](O)c4ccc(O)c5[nH]c(=O)ccc45)c(C(F)(F)F)c3)ccc2-c2ccccc2)CC1 [Example 31, 4-({[5-(3-{[4-({[(2R)-2-hydroxy-2-(8-hydroxy-2-oxo-1,2-dihydroquinolin-5-yl)ethyl]amino}methyl)-3-(trifluoromethyl)phenyl]carbamoyl}propyl)-2-phenylphenyl]carbamoyl}oxy)-1,1-dimethylpiperidin-1-ium trifluoroacetate] | 25.1 nM | 15.7 nM
C[N+]1(C)CCC(OC(=O)Nc2cc(CCCC(=O)Nc3ccc(CNC[C@H](O)c4ccc(O)c5[nH]c(=O)ccc45)cc3F)ccc2-c2ccccc2)CC1 [Example 28, 4-({[5-(3-{[2-fluoro-4-({[(2R)-2-hydroxy-2-(8-hydroxy-2-oxo-1,2-dihydroquinolin-5-yl)ethyl]amino}methyl)phenyl]carbamoyl}propyl)-2-phenylphenyl]carbamoyl}oxy)-1,1-dimethylpiperidin-1-ium trifluoroacetate] | 0.7 nM | 10 nM

The remaining compounds from weak to strong by EC50 [1], led by results:

EC50 [1] | IC50 [2] | SMILES
14.1 nM | 38 nM | C[N+]1(C)CCC(OC(=O)Nc2cc(CCCCCCCCCNC[C@H](O)c3ccc(O)c4[nH]c(=O)ccc34)ccc2-c2ccccc2)CC1 [Example 76, 4-({[5-(9-{[(2R)-2-hydroxy-2-(8-hydroxy-2-oxo-1,2-dihydroquinolin-5-yl)ethyl]amino}nonyl)-2-phenylphenyl]carbamoyl}oxy)-1,1-dimethylpiperidin-1-ium trifluoroacetate]
5.9 nM | 11.4 nM | C[N+]1(C)CCC(OC(=O)Nc2cc(CCC(=O)Nc3ccc(CNC[C@H](O)c4ccc(O)c5[nH]c(=O)ccc45)cn3)ccc2-c2ccccc2)CC1 [Example 17, 4-({[5-(2-{[5-({[(2R)-2-hydroxy-2-(8-hydroxy-2-oxo-1,2-dihydroquinolin-5-yl)ethyl]amino}methyl)pyridin-2-yl]carbamoyl}ethyl)-2-phenylphenyl]carbamoyl}oxy)-1,1-dimethylpiperidin-1-ium trifluoroacetate]
4.3 nM | 27.1 nM | COc1cc(NC(=O)CCCc2ccc(-c3ccccc3)c(NC(=O)O[C@@H]3C[C@@H]4[C@H]5O[C@H]5[C@H](C3)[N+]4(C)C)c2)ccc1CNC[C@H](O)c1ccc(O)c2[nH]c(=O)ccc12 [Example 36, (1R,2R,4S,5S,7S)-7-({[5-(3-{[4-({[(2R)-2-hydroxy-2-(8-hydroxy-2-oxo-1,2-dihydroquinolin-5-yl)ethyl]amino}methyl)-3-methoxyphenyl]carbamoyl}propyl)-2-phenylphenyl]carbamoyl}oxy)-9,9-dimethyl-3-oxa-9-azatricyclo[3.3.1.0^2,4]nonan-9-ium trifluoroacetate]
1.3 nM | 74.1 nM | C[N+]1(C)CCC(OC(=O)Nc2cc(CCCOCCCCCNC[C@H](O)c3ccc(O)c4[nH]c(=O)ccc34)ccc2-c2ccccc2)CC1 [Example 78, 4-{[(5-{3-[(5-{[(2R)-2-hydroxy-2-(8-hydroxy-2-oxo-1,2-dihydroquinolin-5-yl)ethyl]amino}pentyl)oxy]propyl}-2-phenylphenyl)carbamoyl]oxy}-1,1-dimethylpiperidin-1-ium trifluoroacetate]
0.3 nM | 49 nM | C[N+]1(C)[C@@H]2C[C@@H](OC(=O)Nc3ccc(CCCC(=O)Nc4ccc(CNC[C@H](O)c5ccc(O)c6[nH]c(=O)ccc56)cc4Br)cc3-c3ccccc3)C[C@H]1[C@@H]1O[C@@H]12 [Example 72, (1R,2R,4S,5S,7S)-7-({[4-(3-{[2-bromo-4-({[(2R)-2-hydroxy-2-(8-hydroxy-2-oxo-1,2-dihydroquinolin-5-yl)ethyl]amino}methyl)phenyl]carbamoyl}propyl)-2-phenylphenyl]carbamoyl}oxy)-9,9-dimethyl-3-oxa-9-azatricyclo[3.3.1.0^2,4]nonan-9-ium trifluoroacetate]
